{"source": "PubChem BioAssay AID192", "about": "(DTP/NCI, 2004)", "tested_on": "BDF1 mice, B16 melanoma ip, median survival T/C", "assay": "NCI In Vivo Anticancer Drug Screen. Data for tumor model B16 Melanoma (intraperitoneal) in B6D2F1 (BDF1) mice", "settings": "endpoint: median survival time, higher = longer survival", "method_in_brief": "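Survival or tumor size is measured after treatment of tumor-bearing mice and normalised to the vehicle-treated control group.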", "key": {"[1]": {"settings": "dose: 100.0 mg/kg/injection, schedule: Q01DX009 (ip), vehicle: Klucel (hydroxypropylcellulose) (HPC)"}, "[2]": {"settings": "dose: 200.0 mg/kg/injection, schedule: Q01DX009 (ip), vehicle: Klucel (hydroxypropylcellulose) (HPC)"}, "[3]": {"settings": "dose: 400.0 mg/kg/injection, schedule: Q01DX009 (ip), vehicle: Klucel (hydroxypropylcellulose) (HPC)"}, "[4]": {"settings": "dose: 25.0 mg/kg/injection, schedule: Q01DX009 (ip), vehicle: Klucel (hydroxypropylcellulose) (HPC)"}, "[5]": {"settings": "dose: 50.0 mg/kg/injection, schedule: Q01DX009 (ip), vehicle: Klucel (hydroxypropylcellulose) (HPC)"}}, "note": "Toxic doses and inconclusive results are not listed."}
{"smiles": "CCOc1ccc(NC(=O)c2cccc(C(=O)Nc3ccc(OCC)cc3)c2)cc1", "values": [{"measurement": "T/C", "setting": "[1]", "result": "103 % of control"}, {"measurement": "T/C", "setting": "[2]", "result": "93 % of control"}, {"measurement": "T/C", "setting": "[3]", "result": "86 % of control"}]}
{"smiles": "COc1cc(C(=O)CO)cc(OC)c1OC(C)=O", "values": [{"measurement": "T/C", "setting": "dose: 100.0 mg/kg/injection, schedule: Q04DX003 (ip), vehicle: saline with Tween-80", "result": "95 % of control"}, {"measurement": "T/C", "setting": "dose: 200.0 mg/kg/injection, schedule: Q04DX003 (ip), vehicle: saline with Tween-80", "result": "87 % of control"}]}
{"smiles": "Nc1ccccc1SC1CC(=O)N(c2cccc(Cl)c2)C1=O", "note": "(stereo not given)", "values": [{"measurement": "T/C", "setting": "[1]", "result": "95 % of control"}, {"measurement": "T/C", "setting": "[2]", "result": "90 % of control"}]}
{"smiles": "OCC(F)(F)C(F)(F)C(F)(F)F", "values": [{"measurement": "T/C", "setting": "dose: 75.0 mg/kg/injection, schedule: Q01DX009 (ip), vehicle: saline", "result": "105 % of control"}, {"measurement": "T/C", "setting": "dose: 150.0 mg/kg/injection, schedule: Q01DX009 (ip), vehicle: saline", "result": "106 % of control"}, {"measurement": "T/C", "setting": "dose: 300.0 mg/kg/injection, schedule: Q01DX009 (ip), vehicle: saline", "result": "100 % of control"}]}
{"smiles": "CC[C@@]1(O)C[C@H](OC2CC(N(C)C)C(OC3CC(O)C(OC4CC(O)C(O)C(C)O4)C(C)O3)C(C)O2)c2c(cc3c(c2O)C(=O)c2c(O)ccc(O)c2C3=O)[C@H]1C(=O)OC", "note": "(stereo not given in full)", "values": [{"measurement": "T/C", "setting": "dose: 0.03 mg/kg/injection, schedule: Q01DX001 (ip), vehicle: saline", "result": "105 % of control"}, {"measurement": "T/C", "setting": "dose: 0.05 mg/kg/injection, schedule: Q01DX001 (ip), vehicle: saline", "result": "118 % of control"}, {"measurement": "T/C", "setting": "dose: 0.1 mg/kg/injection, schedule: Q01DX001 (ip), vehicle: saline", "result": "119 % of control"}, {"measurement": "T/C", "setting": "dose: 0.25 mg/kg/injection, schedule: Q01DX009 (ip), vehicle: other", "result": "161 % of control"}, {"measurement": "T/C", "setting": "dose: 0.5 mg/kg/injection, schedule: Q01DX009 (ip), vehicle: other", "result": "161 % of control"}, {"measurement": "T/C", "setting": "dose: 0.8 mg/kg/injection, schedule: Q01DX001 (ip), vehicle: saline", "result": "163 % of control"}, {"measurement": "T/C", "setting": "dose: 1.0 mg/kg/injection, schedule: Q01DX009 (ip), vehicle: alcohol", "result": "210 % of control"}, {"measurement": "T/C", "setting": "dose: 1.0 mg/kg/injection, schedule: Q01DX009 (ip), vehicle: other", "result": "188 % of control"}, {"measurement": "T/C", "setting": "dose: 1.6 mg/kg/injection, schedule: Q01DX001 (ip), vehicle: saline", "result": "168 % of control"}, {"measurement": "T/C", "setting": "dose: 2.0 mg/kg/injection, schedule: Q01DX009 (ip), vehicle: alcohol", "result": "216 % of control"}, {"measurement": "T/C", "setting": "dose: 2.16 mg/kg/injection, schedule: Q01DX001 (ip), vehicle: water", "result": "106 % of control"}, {"measurement": "T/C", "setting": "dose: 3.6 mg/kg/injection, schedule: Q01DX001 (ip), vehicle: water", "result": "97 % of control"}, {"measurement": "T/C", "setting": "dose: 6.0 mg/kg/injection, schedule: Q01DX001 (ip), vehicle: water", "result": "100 % of control"}, {"measurement": "T/C", "setting": "dose: 10.0 mg/kg/injection, schedule: Q01DX001 (ip), vehicle: water", "result": "89 % of control"}]}
{"smiles": "CC(C)(C)C1CCCCC1", "values": [{"measurement": "T/C", "setting": "dose: 12.5 mg/kg/injection, schedule: Q01DX009 (ip), vehicle: Klucel (hydroxypropylcellulose) (HPC)", "result": "96 % of control"}, {"measurement": "T/C", "setting": "[4]", "result": "105 % of control"}, {"measurement": "T/C", "setting": "[5]", "result": "95 % of control"}, {"measurement": "T/C", "setting": "[1]", "result": "88 % of control"}]}
{"smiles": "OCC1OC(n2cnc3c(NO)ncnc32)C(O)C1O", "note": "(stereo not given)", "values": [{"measurement": "T/C", "setting": "[2]", "result": "109 % of control"}, {"measurement": "T/C", "setting": "[3]", "result": "111 % of control"}]}
{"smiles": "O=C(O)[C@@H]1[C@H]2C[C@H]3c4[nH]c5ccccc5c4CCN3C[C@@H]2CC[C@@H]1O", "values": [{"measurement": "T/C", "setting": "[4]", "result": "89 % of control"}, {"measurement": "T/C", "setting": "[5]", "result": "88 % of control"}, {"measurement": "T/C", "setting": "[1]", "result": "97 % of control"}, {"measurement": "T/C", "setting": "[2]", "result": "92 % of control"}]}
{"smiles": "CC1=CC(=NN=c2cc(C)n([O-])c(C)c2)C=C(C)[N+]1=O", "values": [{"measurement": "T/C", "setting": "dose: 12.5 mg/kg/injection, schedule: Q01DX009 (ip), vehicle: saline with Tween-80", "result": "111 % of control"}, {"measurement": "T/C", "setting": "dose: 25.0 mg/kg/injection, schedule: Q01DX009 (ip), vehicle: saline with Tween-80", "result": "115 % of control"}, {"measurement": "T/C", "setting": "dose: 50.0 mg/kg/injection, schedule: Q01DX009 (ip), vehicle: saline with Tween-80", "result": "118 % of control"}]}
{"smiles": "CCc1ccc(NC(=O)Nc2ccccc2OC)cc1", "values": [{"measurement": "T/C", "setting": "dose: 100.0 mg/kg/injection, schedule: Q01DX009 (ip), vehicle: gum acacia", "result": "105 % of control"}, {"measurement": "T/C", "setting": "dose: 200.0 mg/kg/injection, schedule: Q01DX009 (ip), vehicle: gum acacia", "result": "98 % of control"}, {"measurement": "T/C", "setting": "dose: 400.0 mg/kg/injection, schedule: Q01DX009 (ip), vehicle: gum acacia", "result": "101 % of control"}]}
